Measured values from PubChem BioAssay AID1919014 (Molecular Pharmacology Branch, DTP, NCI, 2023).

Tested on: NCI-H1341 complex spheroids, percent test/control
Test: Anticancer human tumor NCI-H1341 cell line growth inhibition [AhR];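 further: spheroids exposed to agents for seven days before readout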
Details: for IC50: curve of first compound; for viability, T/C: stronger effect = lower value
Outline: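 Agents were dosed in half-log steps down from roughly clinical Cmax, or from 10 microM where Cmax was unknown, alone and with AhR antagonists. Read-out: percent test/control growth of tumor spheroids containing HUVEC and MSC stromal cells.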

[1] = second compound 0.1 µM, first compound 0.0316 µM
[2] = second compound 0.1 µM, first compound 0.1 µM
[3] = second compound 0.1 µM, first compound 0.316 µM
[4] = second compound 0.1 µM, first compound 1 µM
[5] = second compound 0.1 µM, first compound 3.16 µM
[6] = second compound 0.1 µM, first compound 10 µM
[7] = second compound 0.316 µM, first compound 0.0316 µM
[8] = second compound 0.316 µM, first compound 0.1 µM
[9] = second compound 0.316 µM, first compound 0.316 µM
[10] = second compound 0.316 µM, first compound 1 µM
[11] = second compound 0.316 µM, first compound 3.16 µM
[12] = second compound 0.316 µM, first compound 10 µM
[13] = second compound 1 µM, first compound 0.0316 µM
[14] = second compound 1 µM, first compound 0.1 µM
[15] = second compound 1 µM, first compound 0.316 µM
[16] = second compound 1 µM, first compound 1 µM
[17] = second compound 1 µM, first compound 3.16 µM
[18] = second compound 1 µM, first compound 10 µM
[19] = second compound 3.16 µM, first compound 0.0316 µM
[20] = second compound 3.16 µM, first compound 0.1 µM
[21] = second compound 3.16 µM, first compound 0.316 µM
[22] = second compound 3.16 µM, first compound 1 µM
[23] = second compound 3.16 µM, first compound 3.16 µM
[24] = second compound 3.16 µM, first compound 10 µM
[25] = second compound 10 µM, first compound 0.0316 µM
[26] = second compound 10 µM, first compound 0.1 µM
[27] = second compound 10 µM, first compound 0.316 µM
[28] = second compound 10 µM, first compound 1 µM
[29] = second compound 10 µM, first compound 3.16 µM
[30] = second compound 10 µM, first compound 10 µM

Compound | IC50 (second compound 0.1 µM) [nM] | IC50 (second compound 0.316 µM) [nM] | IC50 (second compound 1 µM) [nM] | IC50 (second compound 3.16 µM) [nM] | IC50 (second compound 10 µM) [nM] | viability, T/C [1] [%] | viability, T/C [2] [%] | viability, T/C [3] [%] | viability, T/C [4] [%] | viability, T/C [5] [%] | viability, T/C [6] [%] | viability, T/C [7] [%] | viability, T/C [8] [%] | viability, T/C [9] [%] | viability, T/C [13] [%] | viability, T/C [14] [%] | viability, T/C [19] [%] | viability, T/C [20] [%] | viability, T/C [25] [%] | viability, T/C [26] [%] | further results
COc1cc(Nc2ncc3c(n2)-c2ccc(Cl)cc2C(c2c(F)cccc2OC)=NC3)ccc1C(=O)O + Cc1ccccc1N=Nc1ccc(NC(=O)c2ccnn2C)c(C)c1 | < 31.6 | < 31.6 | 249 | < 31.6 | < 31.6 | 48.9 | 45.1 | 42 | 31.9 | 29.9 | 25.6 | 50.6 | 46.3 | 48.5 | 56.2 | 55.3 | 47.7 | 48.1 | 44 | 43.9 | viability, T/C [10]: 39.2%; viability, T/C [11]: 30%; viability, T/C [12]: 25.2%; viability, T/C [15]: 48.3%; viability, T/C [16]: 40%; viability, T/C [17]: 31.4%; viability, T/C [18]: 26%; viability, T/C [21]: 39.5%; viability, T/C [22]: 40.9%; viability, T/C [23]: 25.3%; viability, T/C [24]: 26.8%; viability, T/C [27]: 37.3%; viability, T/C [28]: 38.2%; viability, T/C [29]: 27.3%; viability, T/C [30]: 28.6%
Cn1ncnc1C1c2n[nH]c(=O)c3cc(F)cc(c23)NC1c1ccc(F)cc1 (stereo not given) + Cc1ccccc1N=Nc1ccc(NC(=O)c2ccnn2C)c(C)c1 | > 100 | > 100 | > 100 | > 100 | 70.1 | 95.2 | 90.1 |  |  |  |  | 90.9 | 84.5 |  | 84.9 | 59.6 | 70.5 | 54.6 | 58.2 | 41.7 | viability, T/C (second compound 0.1 µM, first compound 0.000316 µM): 112%; viability, T/C (second compound 0.1 µM, first compound 0.001 µM): 105%; viability, T/C (second compound 0.1 µM, first compound 0.00316 µM): 80.9%; viability, T/C (second compound 0.1 µM, first compound 0.01 µM): 86.1%; viability, T/C (second compound 0.316 µM, first compound 0.000316 µM): 89.9%; viability, T/C (second compound 0.316 µM, first compound 0.001 µM): 103%; viability, T/C (second compound 0.316 µM, first compound 0.00316 µM): 93.6%; viability, T/C (second compound 0.316 µM, first compound 0.01 µM): 101%; viability, T/C (second compound 1 µM, first compound 0.000316 µM): 101%; viability, T/C (second compound 1 µM, first compound 0.001 µM): 94.2%; viability, T/C (second compound 1 µM, first compound 0.00316 µM): 80.2%; viability, T/C (second compound 1 µM, first compound 0.01 µM): 88.8%; viability, T/C (second compound 3.16 µM, first compound 0.000316 µM): 75.6%; viability, T/C (second compound 3.16 µM, first compound 0.001 µM): 72.5%; viability, T/C (second compound 3.16 µM, first compound 0.00316 µM): 83.7%; viability, T/C (second compound 3.16 µM, first compound 0.01 µM): 79%; viability, T/C (second compound 10 µM, first compound 0.000316 µM): 56.3%; viability, T/C (second compound 10 µM, first compound 0.001 µM): 56.5%; viability, T/C (second compound 10 µM, first compound 0.00316 µM): 47.7%; viability, T/C (second compound 10 µM, first compound 0.01 µM): 59.9%
NS(=O)(=O)OCC1CC(n2ccc3c(NC4CCc5ccccc54)ncnc32)CC1O (stereo not given) + Cc1ccccc1N=Nc1ccc(NC(=O)c2ccnn2C)c(C)c1 | 113 | 63.3 | 111 | 110 | < 31.6 | 51.6 | 56.5 | 16.4 | 7.98 | 7.35 | 6.54 | 59 | 44.2 | 16.8 | 61.5 | 53.1 | 51.5 | 53.4 | 40.4 | 35.7 | viability, T/C [10]: 9.99%; viability, T/C [11]: 7.77%; viability, T/C [12]: 6.89%; viability, T/C [15]: 22.4%; viability, T/C [16]: 11.4%; viability, T/C [17]: 8.79%; viability, T/C [18]: 6.95%; viability, T/C [21]: 23.6%; viability, T/C [22]: 11%; viability, T/C [23]: 7.99%; viability, T/C [24]: 6.85%; viability, T/C [27]: 20.2%; viability, T/C [28]: 10.3%; viability, T/C [29]: 8.16%; viability, T/C [30]: 5.99%
O=C(C=Cc1cccc(S(=O)(=O)Nc2ccccc2)c1)NO + Cc1ccccc1N=Nc1ccc(NC(=O)c2ccnn2C)c(C)c1 | 568 | 419 | 457 | 266 | 338 | 95.4 | 95.6 | 75.8 | 24.8 | 5.9 | 0.79 | 94.8 | 91.9 | 54.7 | 84.3 | 94.1 | 77.1 | 62.2 | 59.1 | 55 | viability, T/C [10]: 26.2%; viability, T/C [11]: 5.71%; viability, T/C [12]: 0.82%; viability, T/C [15]: 60.3%; viability, T/C [16]: 23%; viability, T/C [17]: 6.42%; viability, T/C [18]: 0.59%; viability, T/C [21]: 49.9%; viability, T/C [22]: 25.4%; viability, T/C [23]: 8.47%; viability, T/C [24]: 0.58%; viability, T/C [27]: 53.5%; viability, T/C [28]: 29%; viability, T/C [29]: 10.8%; viability, T/C [30]: 1.49%
